According to patent US5155106A, “Cysteamine derivatives and antirheumatic agents containing cysteamine derivatives” (Terumo Kabushiki Kaisha, priority 1988, dated 1992):

Tested on: adjuvant arthritis of Lewis rats
Experiment: Suppression of adjuvant arthritis in Lewis rats (hind leg sole edema, Mycobacterium butyricum)
Assay type: in vivo
Conditions: Rattus norvegicus, 432 h, 100 mg/kg oral once a day, 18 days after sensitization; for inhibition in vivo at 100 mg/kg: edema increase vs control group, t-test *P<0.05, **P<0.02, ***P<0.01; for change in vivo at 100 mg/kg: percent increase vs volume before sensitization, control 130.9 ± 5.1 (Table 1), 137.6 ± 15.7 (Table 2), 131.0 ± 10.0 (Table 3), read-out: Increase in volume due to edema
Description: The compounds according to the present invention obtained in the Examples were evaluated for their effects against adjuvant arthritis (diseased animal model for chronic articular rheumatism) of Lewis rats.
In the Experiment, five six week old male Lewis rats (body weight, 130 to 160 g) were treated as one group.
To right hind leg sole of rats from each group was subcutaneously injected with 0.2 mg of dry culture of Mycobacterium butyricum suspended in liquid paraffin. The compounds were suspended in 5% Tween 80, and the suspensions were orally administered to the rats once a day from the day next to the day of sensitization. The rats of both the medicated groups and the control group (non-medicated group) were intermittently measured for their volume of edema in their hind leg sole to examine the effects of the compounds for suppressing the adjuvant arthritis.
Percent increase in the volume of the hind leg sole due to the edema was calculated on the basis of the volume before sensitization, and suppression was determined by comparing the percent increase of the medicated group with that of the control group.

| Structure (SMILES) | inhibition in vivo at 100 mg/kg | change in vivo at 100 mg/kg |
| --- | --- | --- |
| COc1ccc(C(=O)NC2=NCCS2)c(O)c1 [XIII, 2-(2-hydroxy-4-methoxybenzoylamino)thiazoline] | 23.5% | 100 ± 3.1% |
| CCCc1c(OC)ccc(C(=O)N2CCSCC2)c1O [XIV, N-(2-hydroxy-3-n-propyl-4-methoxybenzoyl)thiomorpholine] | 21.5% | 103 ± 10% |
| CCCCCCCCSCCNC(=O)c1ccc(OC)cc1O [XIX, 2-(2'-hydroxy-4'-methoxybenzoylamino)ethyl-n-octylsulfide] | 41.4% | 76.8 ± 17.8% |
| CCCc1c(OC)ccc(C(=O)N2CCSC2)c1O [XV, N-(2-hydroxy-3-n-propyl-4-methoxybenzoyl)thiazolidine] | 27% | 95.6 ± 9.6% |
| CCCc1c(OC)ccc(C(=O)NCc2cccs2)c1O [XVI, N-(2-hydroxy-3-n-propyl-4-methoxybenzoyl)-2-thiophenemethylamine] | 34.4% | 85.9 ± 11.1% |
| COc1ccc(C(=O)NCCS)c(O)c1 [XVII, N-(2-hydroxy-4-methoxybenzoyl)cysteamine] | 38.4% | 84.8 ± 10.4% |
| CCCc1c(OC)ccc(C(=O)NCCS)c1O [XVIII] | 30.1% | 91.6 ± 10.9% |
| CCCCCCCCSCCNC(=O)c1ccc(OC)c(CCC)c1O [XX, 2-(2'-hydroxy-3'-n-propyl-4'-methoxybenzoylamino)ethyl-n-octylsulfide] | 21.1% | 103 ± 8.8% |
